From ChEMBL document CHEMBL1201862, “PubChem BioAssay data set” (2004) come the findings set out here.

Active and inactive are the calls of the source.

System in one assay: not listed separately
The experiment in a line: growth suppression of PTEN-null colon cells, dose response, cell-based, HCT116 PTEN knockout (AID 1047).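 Also: HCT116 colon tumor cells with PTEN knocked out; cells exposed to compound for 60 hours before readout; potency for loss of cell viability measured by luminescence.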 The class given is functional.
Conditions: not given
A word on the EC50: it is the midpoint of the concentration-response curve. Regarding `Cc1oc(-c2ccc(Cl)cc2)nc1CN1CCCC(C(=O)N2CCN(C(=O)c3ccco3)CC2)C1` (stereo not drawn), the EC50 is 26 µM (active).
Regarding `Cc1nn(-c2ccccc2)c(C)c1/C=N/NC(=O)CSc1nc2ccccc2c(=O)n1-c1ccc(Br)cc1`, the EC50 was 7.38 µM (active).

System in a further assay: not listed separately
The experiment in a line: growth suppression of beta-catenin-knockout colon cells, dose response, cell-based, HCT116, human colon tumor (AID 1045).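 Also: HCT116 colon tumor cells with beta catenin knocked out; cells exposed to compound for 60 hours.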
Conditions: not given
The class given is functional.
For the compound `Cc1oc(-c2ccc(Cl)cc2)nc1CN1CCCC(C(=O)N2CCN(C(=O)c3ccco3)CC2)C1` (stereo not drawn), the EC50 is 17.3 µM (active).
Still for that read-out and setting: as for `Cc1nn(-c2ccccc2)c(C)c1/C=N/NC(=O)CSc1nc2ccccc2c(=O)n1-c1ccc(Br)cc1`, the figure is 7.27 µM (active).

For a further assay, the target named is T1, Polyadenylate-binding protein 1 (Homo sapiens, UniProt P11940). The experiment in a line: PABP1 MLLE–PAM2 interaction inhibitors, dose response, miRNA deadenylation inhibitor project, biochemical, fluorescence polarization, Cy5-PAM2 peptide, secondary (AID 602260). The class given is functional. The conditions noted are these: read-out: IC50_Mean. (In general: Polarisation of emitted light reports the rotation of a fluorescent probe.)
T1 sequence (P11940 whole entry): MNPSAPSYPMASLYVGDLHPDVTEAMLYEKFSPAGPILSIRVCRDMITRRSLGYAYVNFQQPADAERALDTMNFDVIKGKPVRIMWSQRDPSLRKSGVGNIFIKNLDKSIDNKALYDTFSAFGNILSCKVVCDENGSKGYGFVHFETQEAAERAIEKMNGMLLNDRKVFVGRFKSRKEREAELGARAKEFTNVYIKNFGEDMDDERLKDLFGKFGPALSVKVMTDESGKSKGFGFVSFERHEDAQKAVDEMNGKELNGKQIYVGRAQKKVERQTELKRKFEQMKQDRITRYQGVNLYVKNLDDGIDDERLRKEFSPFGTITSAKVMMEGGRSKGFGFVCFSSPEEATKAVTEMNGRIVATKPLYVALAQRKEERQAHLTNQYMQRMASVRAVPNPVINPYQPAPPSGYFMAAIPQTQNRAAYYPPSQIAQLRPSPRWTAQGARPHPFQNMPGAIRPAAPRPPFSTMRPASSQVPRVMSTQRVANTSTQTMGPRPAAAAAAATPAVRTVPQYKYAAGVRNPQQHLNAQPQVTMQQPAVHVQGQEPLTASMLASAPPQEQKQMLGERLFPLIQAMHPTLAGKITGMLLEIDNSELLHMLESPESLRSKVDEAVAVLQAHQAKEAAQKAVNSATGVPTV
Take `O=[N+]([O-])c1cccc(C(=S)N2CCN(c3ccc(F)cc3)CC2)c1`: the IC50 is > 66 µM (inactive).
For `CC(C)C1=C2CCCCC2NC(=O)N1` (stereo not drawn), the IC50 was > 66 µM (inactive).
`N#CCSc1nnc(CNc2ccc(F)cc2)o1`: the IC50 was > 66 µM (inactive).
On the same count and under the same terms, as for `O=C(O)c1cccc(NC(=S)NC(=O)c2ccncc2)c1`, the figure is > 66 µM (inactive); as for `C=CCNC(=S)NS(=O)(=O)c1cccs1`, > 66 µM (inactive).
Same read-out and setting: with `O=C(NC(=S)Nc1ccc(S(=O)(=O)N2CCCC2)cc1)c1cccs1` the figure was > 66 µM (inactive).
As to `Cc1cccc(NC(=S)NC(=O)c2cccs2)n1`, the IC50 is > 66 µM (inactive).

System in another assay: not listed separately
The experiment in a line: Shn3 3'UTR reporter inhibitors, dose response, cell-based, Clone20 osteoblasts, firefly luciferase, cherry-picked (AID 624132).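 Also: firefly luciferase luminescence from reporter carrying the Shn3 3'UTR in osteoblasts.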
Conditions: not given
It counts as functional.
What is called AC50 is the concentration giving half of the maximal activity seen. Regarding `Cc1nn(Cc2ccc(Cl)cc2)c(C)c1NC(=O)c1cc(C(C)C)on1`, the concentration at half-maximal activity (AC50) was 6.2 µM (active).
On the same count and under the same terms, with `S=C(NCCCCN(Cc1ccc(Cl)cc1)c1ccc(Br)cn1)NCCCc1cnc[nH]1` the figure was 7.24 µM (active); with `Cn1c(COc2ccc(Br)cc2)nnc1SC1CCc2ccccc2C1=O` (stereo not drawn), 35.2 µM (active).
Take `CCOC(=O)C1(Cc2cccc(OC)c2)CCN(C/C=C/c2ccc(OC)cc2)CC1`: the AC50 is 4.75 µM (active).
Same read-out and setting: with `COC(=O)C1=C(c2ccc(F)cc2OCc2ccccc2)C[C@@H]2CC[C@H]1N2C(=O)NCc1ccc(C(F)(F)F)cc1` the figure was 9.14 µM (active); with `COc1ccccc1CNc1nc(NCc2ccccc2SC)c2sccc2n1`, 4.48 µM (active).

For the next assay, the target named is T1, Polyadenylate-binding protein 1. Nature of the assay: PABP1 MLLE–PAM2 binding inhibitor potency, dose response, biochemical, fluorescence polarization, FITC-PAM2 peptide (AID 602259). It counts as functional. The conditions noted are these: read-out: IC50_Mean.
As to `O=[N+]([O-])c1cccc(C(=S)N2CCN(c3ccc(F)cc3)CC2)c1`, the IC50 is > 66 µM (inactive).
Consider `CC(C)C1=C2CCCCC2NC(=O)N1` (stereo not drawn), for which the IC50 was > 66 µM (inactive).
With `N#CCSc1nnc(CNc2ccc(F)cc2)o1`, the IC50 was > 66 µM (inactive).
`O=C(O)c1cccc(NC(=S)NC(=O)c2ccncc2)c1`: the IC50 is > 66 µM (inactive).
Regarding `C=CCNC(=S)NS(=O)(=O)c1cccs1`, the IC50 is > 66 µM (inactive).
Turning to `O=C(NC(=S)Nc1ccc(S(=O)(=O)N2CCCC2)cc1)c1cccs1`, the IC50 is > 66 µM (inactive).
As for `Cc1cccc(NC(=S)NC(=O)c2cccs2)n1`, the IC50 is > 66 µM (inactive).

System in a further assay: not listed separately
Nature of the assay: HepG2 cell cytotoxicity, dose response, cytotoxicity control for Shn3 inhibitor project, CellTiter-Glo, cherry-picked (AID 624134).
Conditions: not given
It counts as functional, cell-based.
Turning to `Cc1nn(Cc2ccc(Cl)cc2)c(C)c1NC(=O)c1cc(C(C)C)on1`, the concentration at half-maximal activity (AC50) is 67 µM (active).
Take `S=C(NCCCCN(Cc1ccc(Cl)cc1)c1ccc(Br)cn1)NCCCc1cnc[nH]1`: the AC50 was 19.5 µM (active).
Consider `Cn1c(COc2ccc(Br)cc2)nnc1SC1CCc2ccccc2C1=O` (stereo not drawn), for which the half-maximal activity concentration (AC50) was 58.9 µM (active).
The same measure, in the same setting: as for `CCOC(=O)C1(Cc2cccc(OC)c2)CCN(C/C=C/c2ccc(OC)cc2)CC1`, the figure is 51.6 µM (active); as for `COC(=O)C1=C(c2ccc(F)cc2OCc2ccccc2)C[C@@H]2CC[C@H]1N2C(=O)NCc1ccc(C(F)(F)F)cc1`, > 70 µM (inactive).
As for `COc1ccccc1CNc1nc(NCc2ccccc2SC)c2sccc2n1`, the concentration at half-maximal activity (AC50) is 21.1 µM (active).

System in a further assay: not listed separately
Nature of the assay: control 3'UTR Renilla luciferase suppression, dose response, counter-screen for Shn3 inhibitor project, cell-based, Clone20-Shn3RL, cherry-picked (AID 624133).
Conditions: not given
The class given is functional. In general terms: Counterscreens check selectivity or assay interference.
As for `Cc1nn(Cc2ccc(Cl)cc2)c(C)c1NC(=O)c1cc(C(C)C)on1`, the AC50 is 9.1 µM (active).
Same read-out and setting: as for `S=C(NCCCCN(Cc1ccc(Cl)cc1)c1ccc(Br)cn1)NCCCc1cnc[nH]1`, the figure is 39.3 µM (active); as for `Cn1c(COc2ccc(Br)cc2)nnc1SC1CCc2ccccc2C1=O` (stereo not drawn), 12.5 µM (active); as for `CCOC(=O)C1(Cc2cccc(OC)c2)CCN(C/C=C/c2ccc(OC)cc2)CC1`, 5.59 µM (active).
With `COC(=O)C1=C(c2ccc(F)cc2OCc2ccccc2)C[C@@H]2CC[C@H]1N2C(=O)NCc1ccc(C(F)(F)F)cc1`, the AC50 was 7.19 µM (active).
Same read-out and setting: as for `COc1ccccc1CNc1nc(NCc2ccccc2SC)c2sccc2n1`, the figure is 5.2 µM (active).

The target in a further assay is Paired box protein Pax-8 (Homo sapiens, UniProt Q06710). The experiment in a line: inhibitors of PAX8-driven TPO luciferase reporter, dose response, RMG-I cells, cherry-pick (AID 687027).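 Also: luciferase reporter driven by Pax8 target thyroperoxidase promoter measured by SteadyGlo luminescence.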
Chain of Paired box protein Pax-8 (Q06710 whole entry): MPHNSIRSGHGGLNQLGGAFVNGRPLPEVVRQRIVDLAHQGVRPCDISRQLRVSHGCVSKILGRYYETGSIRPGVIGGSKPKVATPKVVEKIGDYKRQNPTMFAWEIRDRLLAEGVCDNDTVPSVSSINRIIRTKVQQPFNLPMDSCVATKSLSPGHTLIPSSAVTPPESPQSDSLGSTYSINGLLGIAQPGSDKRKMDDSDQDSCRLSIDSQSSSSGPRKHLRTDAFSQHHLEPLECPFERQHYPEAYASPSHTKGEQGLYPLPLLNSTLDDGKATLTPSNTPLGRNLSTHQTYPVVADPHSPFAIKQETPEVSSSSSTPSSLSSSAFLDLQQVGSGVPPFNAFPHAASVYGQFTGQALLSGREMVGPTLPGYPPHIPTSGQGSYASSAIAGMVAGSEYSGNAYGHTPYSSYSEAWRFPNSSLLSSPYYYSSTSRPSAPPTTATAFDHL
Conditions: not given
It counts as functional, cell-based. Background: Reporter assays use an easily measured gene product as a stand-in for the process of interest.
Consider `COC(=O)C1=C(c2ccc(F)cc2OCc2ccccc2)C[C@@H]2CC[C@H]1N2C(=O)NCc1ccc(C(F)(F)F)cc1`, for which the AC50 was 10.9 µM (active).

The target of a further assay is Cytochrome P450 3A4 (Homo sapiens, UniProt P08684).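 Also: CYP3A4 tested as one member of a cytochrome P450 panel screen.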
Chain of Cytochrome P450 3A4 (P08684 whole entry): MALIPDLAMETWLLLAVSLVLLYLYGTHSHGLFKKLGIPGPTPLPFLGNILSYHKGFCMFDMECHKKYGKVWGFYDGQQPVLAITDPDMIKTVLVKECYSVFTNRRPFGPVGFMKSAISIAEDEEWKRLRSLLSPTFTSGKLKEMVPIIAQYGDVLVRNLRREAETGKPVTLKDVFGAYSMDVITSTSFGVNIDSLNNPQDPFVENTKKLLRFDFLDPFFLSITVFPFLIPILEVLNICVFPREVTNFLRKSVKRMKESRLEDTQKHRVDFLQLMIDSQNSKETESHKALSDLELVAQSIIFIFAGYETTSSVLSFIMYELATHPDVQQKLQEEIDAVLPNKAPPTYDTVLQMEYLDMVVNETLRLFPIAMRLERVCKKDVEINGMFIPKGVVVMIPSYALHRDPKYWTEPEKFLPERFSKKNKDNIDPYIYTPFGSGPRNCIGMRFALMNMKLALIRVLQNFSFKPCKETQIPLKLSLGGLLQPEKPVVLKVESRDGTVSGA
Assay: not given
Conditions: not given
Consider `Cc1cccc(NC(=S)NC(=O)c2cccs2)n1`, for which the half-maximal activity concentration (AC50) was 28.2 µM (inconclusive).
